ChEMBL document CHEMBL5512646, “Synthesis, kinase inhibition and anti-leukemic activities of diversely substituted indolopyrazolocarbazoles” (Eur J Med Chem, 2024)

What was measured:
MOLM-13 = experiment: Cytotoxicity against human MOLM-13 cells assessed as induction of cell death incubated for 24 hrs by WST-1 assay; conditions: MOLM-13, 24 h
HCT-116 = experiment: Cytotoxicity against human HCT-116 cells assessed as inhibition of cell growth incubated for 24 hrs by MTT assay; format: functional, cell-based; conditions: HCT-116, 24 h
[1] = biological target: Serine/threonine-protein kinase pim-2 (Homo sapiens, UniProt Q9P1W9); experiment: Inhibition of PIM-2 (unknown origin)
Chain of Serine/threonine-protein kinase pim-2 (Q9P1W9 whole entry): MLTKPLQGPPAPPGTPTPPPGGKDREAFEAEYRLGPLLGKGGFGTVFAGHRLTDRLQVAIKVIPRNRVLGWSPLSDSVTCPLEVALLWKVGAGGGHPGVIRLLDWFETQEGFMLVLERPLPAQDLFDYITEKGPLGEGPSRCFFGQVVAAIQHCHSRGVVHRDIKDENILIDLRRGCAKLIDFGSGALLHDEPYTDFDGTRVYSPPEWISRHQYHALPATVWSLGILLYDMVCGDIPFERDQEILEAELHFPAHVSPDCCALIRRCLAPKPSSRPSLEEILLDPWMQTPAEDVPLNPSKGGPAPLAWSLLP

[2] = biological target: Serine/threonine-protein kinase N2 (Homo sapiens, UniProt Q16513); experiment: Inhibition of human PRK2 using ISDELMDATFADQEAKKK as substrate in presence of ATP
Chain of Serine/threonine-protein kinase N2 (Q16513 whole entry): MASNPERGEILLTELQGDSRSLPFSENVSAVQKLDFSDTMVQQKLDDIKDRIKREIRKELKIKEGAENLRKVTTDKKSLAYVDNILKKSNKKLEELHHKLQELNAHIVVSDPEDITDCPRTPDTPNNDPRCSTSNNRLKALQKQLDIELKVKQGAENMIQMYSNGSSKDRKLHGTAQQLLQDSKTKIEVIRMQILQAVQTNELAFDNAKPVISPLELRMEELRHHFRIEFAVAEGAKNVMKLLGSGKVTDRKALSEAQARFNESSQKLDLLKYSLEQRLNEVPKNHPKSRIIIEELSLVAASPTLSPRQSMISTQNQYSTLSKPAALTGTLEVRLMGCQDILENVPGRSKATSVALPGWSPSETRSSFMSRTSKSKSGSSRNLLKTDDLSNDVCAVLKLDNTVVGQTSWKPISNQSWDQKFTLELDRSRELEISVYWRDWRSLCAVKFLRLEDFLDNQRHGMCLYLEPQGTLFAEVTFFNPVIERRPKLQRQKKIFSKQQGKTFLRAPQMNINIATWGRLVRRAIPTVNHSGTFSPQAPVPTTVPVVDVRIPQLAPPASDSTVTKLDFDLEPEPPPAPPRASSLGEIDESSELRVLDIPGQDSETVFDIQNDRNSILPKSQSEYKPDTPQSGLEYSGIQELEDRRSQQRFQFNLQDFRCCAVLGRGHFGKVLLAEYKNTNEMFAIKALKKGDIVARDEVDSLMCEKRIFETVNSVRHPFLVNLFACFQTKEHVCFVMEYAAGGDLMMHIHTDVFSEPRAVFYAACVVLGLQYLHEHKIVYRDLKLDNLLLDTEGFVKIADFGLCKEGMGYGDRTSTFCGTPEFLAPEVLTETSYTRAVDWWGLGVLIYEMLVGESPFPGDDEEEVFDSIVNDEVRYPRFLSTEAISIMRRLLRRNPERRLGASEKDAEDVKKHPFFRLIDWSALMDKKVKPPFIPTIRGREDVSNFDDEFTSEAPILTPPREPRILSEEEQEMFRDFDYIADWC

[3] = biological target: 5'-AMP-activated protein kinase catalytic subunit alpha-2 (Homo sapiens, UniProt P54646); experiment: Inhibition of human AMPK using HMRSAMSGLHLVKRR as substrate in presence of ATP
Chain of 5'-AMP-activated protein kinase catalytic subunit alpha-2 (P54646 whole entry): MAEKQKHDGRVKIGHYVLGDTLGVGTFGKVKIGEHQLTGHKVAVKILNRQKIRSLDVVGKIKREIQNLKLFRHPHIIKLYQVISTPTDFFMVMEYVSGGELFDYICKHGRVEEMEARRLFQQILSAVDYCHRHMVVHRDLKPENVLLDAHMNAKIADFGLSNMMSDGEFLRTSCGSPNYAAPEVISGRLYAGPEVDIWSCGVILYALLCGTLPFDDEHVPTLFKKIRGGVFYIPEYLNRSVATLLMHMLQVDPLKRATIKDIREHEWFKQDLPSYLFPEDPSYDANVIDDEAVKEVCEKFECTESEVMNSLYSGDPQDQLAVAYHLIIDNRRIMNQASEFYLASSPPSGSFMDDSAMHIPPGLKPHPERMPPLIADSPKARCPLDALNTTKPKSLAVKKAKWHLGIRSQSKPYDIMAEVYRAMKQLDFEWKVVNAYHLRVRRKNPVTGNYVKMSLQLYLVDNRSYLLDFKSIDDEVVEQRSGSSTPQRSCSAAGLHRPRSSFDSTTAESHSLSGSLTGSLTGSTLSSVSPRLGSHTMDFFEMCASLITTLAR

[4] = biological target: MAP/microtubule affinity-regulating kinase 3 (Homo sapiens, UniProt P27448); experiment: Inhibition of human MARK3 using ATPKKLNRTLSVA as substrate in presence of ATP
Chain of MAP/microtubule affinity-regulating kinase 3 (P27448 whole entry): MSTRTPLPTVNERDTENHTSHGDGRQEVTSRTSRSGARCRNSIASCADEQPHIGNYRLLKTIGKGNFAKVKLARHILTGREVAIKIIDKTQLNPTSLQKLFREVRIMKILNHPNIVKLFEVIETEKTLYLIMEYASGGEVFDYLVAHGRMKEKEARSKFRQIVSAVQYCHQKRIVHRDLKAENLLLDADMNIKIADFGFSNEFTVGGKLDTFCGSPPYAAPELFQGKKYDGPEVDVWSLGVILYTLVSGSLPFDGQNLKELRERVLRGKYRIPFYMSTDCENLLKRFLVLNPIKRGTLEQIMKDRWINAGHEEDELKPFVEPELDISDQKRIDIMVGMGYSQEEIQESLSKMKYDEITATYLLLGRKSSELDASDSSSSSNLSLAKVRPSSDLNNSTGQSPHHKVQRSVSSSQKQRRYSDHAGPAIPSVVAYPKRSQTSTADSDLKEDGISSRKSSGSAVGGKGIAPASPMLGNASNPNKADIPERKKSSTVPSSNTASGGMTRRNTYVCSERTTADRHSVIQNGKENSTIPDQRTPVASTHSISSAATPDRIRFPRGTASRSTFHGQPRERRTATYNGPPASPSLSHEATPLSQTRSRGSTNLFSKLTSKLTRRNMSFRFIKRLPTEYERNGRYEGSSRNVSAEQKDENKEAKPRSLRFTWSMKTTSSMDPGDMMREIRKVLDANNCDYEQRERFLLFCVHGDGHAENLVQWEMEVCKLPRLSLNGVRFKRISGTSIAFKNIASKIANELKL

[5] = biological target: Glycogen synthase kinase-3 beta (Homo sapiens, UniProt P49841); experiment: Inhibition of human GSK3beta using Poly Glut Tyr as substrate in presence of ATP
Chain of Glycogen synthase kinase-3 beta (P49841 whole entry): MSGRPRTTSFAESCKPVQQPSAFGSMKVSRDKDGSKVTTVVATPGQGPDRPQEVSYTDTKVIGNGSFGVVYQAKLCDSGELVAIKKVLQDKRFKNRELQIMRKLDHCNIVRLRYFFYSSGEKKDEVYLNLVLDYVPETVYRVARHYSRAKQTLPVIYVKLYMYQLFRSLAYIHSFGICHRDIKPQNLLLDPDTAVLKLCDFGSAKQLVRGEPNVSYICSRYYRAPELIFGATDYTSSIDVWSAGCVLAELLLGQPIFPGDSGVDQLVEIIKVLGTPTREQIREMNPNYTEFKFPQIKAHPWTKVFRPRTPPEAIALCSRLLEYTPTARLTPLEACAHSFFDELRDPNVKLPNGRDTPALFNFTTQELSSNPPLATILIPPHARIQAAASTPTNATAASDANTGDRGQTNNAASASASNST

[6] = biological target: T1, Tyrosine-protein kinase JAK3 (Homo sapiens, UniProt P52333); experiment: Inhibition of human JAK3 using MBP as substrate in presence of ATP
T1 sequence (P52333 whole entry): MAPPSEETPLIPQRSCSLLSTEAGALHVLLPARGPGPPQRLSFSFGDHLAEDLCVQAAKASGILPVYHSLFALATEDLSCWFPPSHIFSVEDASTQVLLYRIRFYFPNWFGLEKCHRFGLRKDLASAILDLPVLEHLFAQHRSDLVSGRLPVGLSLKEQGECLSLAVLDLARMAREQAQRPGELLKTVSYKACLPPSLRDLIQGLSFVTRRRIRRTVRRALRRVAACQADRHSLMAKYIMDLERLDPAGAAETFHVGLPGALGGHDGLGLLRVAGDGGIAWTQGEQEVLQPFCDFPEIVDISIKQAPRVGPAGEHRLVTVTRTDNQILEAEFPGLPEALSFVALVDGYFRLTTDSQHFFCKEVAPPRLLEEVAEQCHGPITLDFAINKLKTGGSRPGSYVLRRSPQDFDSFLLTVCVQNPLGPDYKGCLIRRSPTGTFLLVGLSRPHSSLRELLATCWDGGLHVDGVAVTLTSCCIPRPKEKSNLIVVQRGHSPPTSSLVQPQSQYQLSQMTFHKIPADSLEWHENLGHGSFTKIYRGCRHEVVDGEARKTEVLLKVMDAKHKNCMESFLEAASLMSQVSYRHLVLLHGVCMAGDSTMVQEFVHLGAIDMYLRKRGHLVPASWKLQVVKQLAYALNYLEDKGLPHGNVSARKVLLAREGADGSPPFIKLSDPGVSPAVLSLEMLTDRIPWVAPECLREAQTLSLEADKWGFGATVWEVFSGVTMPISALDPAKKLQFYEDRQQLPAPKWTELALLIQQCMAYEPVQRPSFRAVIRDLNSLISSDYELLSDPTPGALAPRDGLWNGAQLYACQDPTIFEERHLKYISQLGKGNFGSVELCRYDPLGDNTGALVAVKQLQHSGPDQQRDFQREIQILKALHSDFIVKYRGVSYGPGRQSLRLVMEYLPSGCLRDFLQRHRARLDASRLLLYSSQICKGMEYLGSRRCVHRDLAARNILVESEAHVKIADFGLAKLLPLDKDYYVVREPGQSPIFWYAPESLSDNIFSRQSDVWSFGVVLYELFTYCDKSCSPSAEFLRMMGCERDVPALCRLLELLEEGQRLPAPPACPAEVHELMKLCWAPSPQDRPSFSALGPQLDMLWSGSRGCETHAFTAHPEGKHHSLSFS

[7] = biological target: Serine/threonine-protein kinase pim-1 (Homo sapiens, UniProt P11309)
Chain of Serine/threonine-protein kinase pim-1 (P11309 whole entry): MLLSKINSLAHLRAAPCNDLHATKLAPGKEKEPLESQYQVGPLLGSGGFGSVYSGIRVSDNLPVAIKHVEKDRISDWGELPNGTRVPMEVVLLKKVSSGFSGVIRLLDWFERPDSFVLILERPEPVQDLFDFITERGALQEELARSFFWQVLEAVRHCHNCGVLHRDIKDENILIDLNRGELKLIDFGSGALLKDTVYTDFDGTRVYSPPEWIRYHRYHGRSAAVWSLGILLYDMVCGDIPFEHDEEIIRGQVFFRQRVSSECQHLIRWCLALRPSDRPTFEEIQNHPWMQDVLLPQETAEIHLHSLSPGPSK
Description: Inhibition of PIM-1 (unknown origin)

SMILES | EC50 (MOLM-13) | also measured
NCCCCn1c2ccccc2c2c3[nH]ncc3c3c4ccccc4[nH]c3c21 | 2.7 µM | 
CCCCCn1c2ccccc2c2c3[nH]ncc3c3c4ccccc4[nH]c3c21 | 15 µM | 
CCN(CC)CCCn1c2ccccc2c2c3[nH]ncc3c3c4ccccc4[nH]c3c21 | > 4 µM | 
OC[C@H]1O[C@@H](n2c3ccccc3c3c4cn[nH]c4c4c5ccccc5[nH]c4c32)[C@H](O)[C@@H](O)[C@@H]1O |  | IC50 (HCT-116): 11 µM
CCCCn1c2ccccc2c2c3[nH]ncc3c3c4ccccc4[nH]c3c21 | > 5 µM | 
CNCCCn1c2ccccc2c2c3cn[nH]c3c3c4ccccc4[nH]c3c21 |  | IC50 [1]: 316 nM; IC50 [2]: 9 nM; IC50 [3]: 14.4 nM; IC50 [4]: 24 nM; IC50 [5]: 128 nM; IC50 [6]: 41 nM; IC50 [7]: 45 nM
CN(C)CCCn1c2ccccc2c2c3[nH]ncc3c3c4ccccc4[nH]c3c21 | 3.8 µM | 
OCCCCn1c2ccccc2c2c3[nH]ncc3c3c4ccccc4[nH]c3c21 | 4.1 µM | 
CCN(CC)CCCCn1c2ccccc2c2c3[nH]ncc3c3c4ccccc4[nH]c3c21 | 4.3 µM | 
NCCCn1c2ccccc2c2c3[nH]ncc3c3c4ccccc4[nH]c3c21 | > 40 µM | 
OC[C@H]1O[C@@H](n2c3ccccc3c3c4[nH]ncc4c4c5ccccc5[nH]c4c32)[C@H](O)[C@@H](O)[C@@H]1O |  | IC50 (HCT-116): 12 µM
CCCCCn1c2ccccc2c2c3cn[nH]c3c3c4ccccc4[nH]c3c21 | > 5 µM | 
